From PubChem BioAssay (NCI)
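Assay format: 96-well plates, 48-hour exposure. The concentration for 50% growth inhibition is given as GI50. TGI: total growth inhibition.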

Columns and labels:
Assay in all cases: NCI tumour cell line growth inhibition, 48 h
EKVX NSCLC = tested on: EKVX NSCLC
UACC-62 melanoma = tested on: UACC-62 melanoma
BT-549 breast = tested on: BT-549 breast
CCRF-CEM leukemia = tested on: CCRF-CEM leukemia
IGROV1 ovarian = tested on: IGROV1 ovarian
OVCAR-5 ovarian = tested on: OVCAR-5 ovarian
DU-145 prostate = tested on: DU-145 prostate
SK-MEL-5 melanoma = tested on: SK-MEL-5 melanoma
SF-295 CNS = tested on: SF-295 CNS
MDA-MB-435 = tested on: MDA-MB-435
OVCAR-4 ovarian = tested on: OVCAR-4 ovarian
HCT-116 colon = tested on: HCT-116 colon
NCI-H226 lung = tested on: NCI-H226 lung
HOP-62 NSCLC = tested on: HOP-62 NSCLC
786-0 renal = tested on: 786-0 renal
HL-60(TB) leukemia = tested on: HL-60(TB) leukemia
SW-620 colon = tested on: SW-620 colon
KM12 colon = tested on: KM12 colon
NCI-H522 lung = tested on: NCI-H522 lung
UACC-257 melanoma = tested on: UACC-257 melanoma
ACHN renal = tested on: ACHN renal
SNB-75 CNS = tested on: SNB-75 CNS
MOLT-4 leukemia = tested on: MOLT-4 leukemia
M14 melanoma = tested on: M14 melanoma
SNB-19 CNS = tested on: SNB-19 CNS
NCI-H23 lung = tested on: NCI-H23 lung
HS 578T breast = tested on: HS 578T breast
U251 CNS = tested on: U251 CNS
K-562 leukemia = tested on: K-562 leukemia
SK-MEL-2 melanoma = tested on: SK-MEL-2 melanoma
UO-31 renal = tested on: UO-31 renal
MALME-3M melanoma = tested on: MALME-3M melanoma
SN12C renal = tested on: SN12C renal
NCI/ADR-RES ovarian = tested on: NCI/ADR-RES ovarian
SF-268 CNS = tested on: SF-268 CNS
A498 renal = tested on: A498 renal
OVCAR-8 ovarian = tested on: OVCAR-8 ovarian
LOX IMVI melanoma = tested on: LOX IMVI melanoma
A549 NSCLC = tested on: A549 NSCLC
CAKI-1 renal = tested on: CAKI-1 renal
HCT-15 colon = tested on: HCT-15 colon
HT29 colon = tested on: HT29 colon
TK-10 renal = tested on: TK-10 renal
MCF7 breast = tested on: MCF7 breast
NCI-H460 lung = tested on: NCI-H460 lung
RPMI-8226 leukemia = tested on: RPMI-8226 leukemia
HCC-2998 colon = tested on: HCC-2998 colon
SK-OV-3 ovarian = tested on: SK-OV-3 ovarian
SK-MEL-28 melanoma = tested on: SK-MEL-28 melanoma
T-47D breast = tested on: T-47D breast
MDA-MB-231 breast = tested on: MDA-MB-231 breast
SF-539 CNS = tested on: SF-539 CNS
HOP-92 NSCLC = tested on: HOP-92 NSCLC
OVCAR-3 ovarian = tested on: OVCAR-3 ovarian
COLO 205 colon = tested on: COLO 205 colon
PC-3 prostate = tested on: PC-3 prostate
SR leukemia = tested on: SR leukemia
RXF 393 renal = tested on: RXF 393 renal

With COC(=O)C(=Cc1ccccc1[N+](=O)[O-])C(=O)OC the GI50 (EKVX NSCLC) was 4.23 µM, the TGI (EKVX NSCLC) was 17 µM and the GI50 (UACC-62 melanoma) was 3.79 µM. It also gave a TGI (UACC-62 melanoma) of 15.5 µM, a GI50 (BT-549 breast) of 7.14 µM and a TGI (BT-549 breast) of 19.8 µM. For the same compound, the GI50 (CCRF-CEM leukemia) was 1.81 µM, the TGI (CCRF-CEM leukemia) was 5.16 µM and the GI50 (IGROV1 ovarian) was 3.41 µM. It also gave a TGI (IGROV1 ovarian) of 12 µM, a GI50 (OVCAR-5 ovarian) of 3.13 µM and a TGI (OVCAR-5 ovarian) of 8.35 µM. It also gave a GI50 (DU-145 prostate) of 2.29 µM, a TGI (DU-145 prostate) of 6.61 µM and a GI50 (SK-MEL-5 melanoma) of 2.55 µM. For the same compound, the TGI (SK-MEL-5 melanoma) was 9.2 µM, the GI50 (SF-295 CNS) was 4.08 µM and the TGI (SF-295 CNS) was 17.3 µM. It also gave a GI50 (MDA-MB-435) of 2.26 µM, a TGI (MDA-MB-435) of 10.2 µM and a GI50 (OVCAR-4 ovarian) of 3.94 µM. The TGI (OVCAR-4 ovarian) was 16.1 µM, the GI50 (HCT-116 colon) was 2.69 µM and the TGI (HCT-116 colon) was 9.55 µM. The GI50 (NCI-H226 lung) was 8.34 µM, the TGI (NCI-H226 lung) was 24.8 µM and the GI50 (HOP-62 NSCLC) was 13.6 µM. For the same compound, the TGI (HOP-62 NSCLC) was 27.1 µM, the GI50 (786-0 renal) was 4.24 µM and the TGI (786-0 renal) was 14.2 µM. For the same compound, the GI50 (HL-60(TB) leukemia) was 2.78 µM, the TGI (HL-60(TB) leukemia) was over 100 µM and the GI50 (SW-620 colon) was 3.9 µM. It also gave a TGI (SW-620 colon) of 12.7 µM, a GI50 (KM12 colon) of 2.99 µM and a TGI (KM12 colon) of 10 µM. For the same compound, the GI50 (NCI-H522 lung) was 1.9 µM, the TGI (NCI-H522 lung) was 6.65 µM and the GI50 (UACC-257 melanoma) was 4.06 µM. The TGI (UACC-257 melanoma) was 17.3 µM, the GI50 (ACHN renal) was 4.33 µM and the TGI (ACHN renal) was 15.6 µM. For the same compound, the GI50 (SNB-75 CNS) was 2.75 µM, the TGI (SNB-75 CNS) was 15.3 µM and the GI50 (MOLT-4 leukemia) was 2.31 µM. It also gave a TGI (MOLT-4 leukemia) of 7.21 µM, a GI50 (M14 melanoma) of 3.04 µM and a TGI (M14 melanoma) of 14 µM. For the same compound, the GI50 (SNB-19 CNS) was 5.41 µM, the TGI (SNB-19 CNS) was 21.6 µM and the GI50 (NCI-H23 lung) was 2.62 µM. The TGI (NCI-H23 lung) was 9.83 µM, the GI50 (HS 578T breast) was 2.04 µM and the TGI (HS 578T breast) was 8.09 µM. For the same compound, the GI50 (U251 CNS) was 3.23 µM, the TGI (U251 CNS) was 13.9 µM and the GI50 (K-562 leukemia) was 2.51 µM. It also gave a TGI (K-562 leukemia) of 9.48 µM, a GI50 (SK-MEL-2 melanoma) of 3.61 µM and a TGI (SK-MEL-2 melanoma) of 16.4 µM. It also gave a GI50 (UO-31 renal) of 2.31 µM, a TGI (UO-31 renal) of 9.8 µM and a GI50 (MALME-3M melanoma) of 4.44 µM. The TGI (MALME-3M melanoma) was 18.1 µM, the GI50 (SN12C renal) was 3.63 µM and the TGI (SN12C renal) was 18.1 µM. The GI50 (NCI/ADR-RES ovarian) was 2.31 µM, the TGI (NCI/ADR-RES ovarian) was 5.77 µM and the GI50 (SF-268 CNS) was 3.06 µM. The TGI (SF-268 CNS) was 12.7 µM, the GI50 (A498 renal) was 2.75 µM and the TGI (A498 renal) was 8.23 µM. For the same compound, the GI50 (OVCAR-8 ovarian) was 3.53 µM, the TGI (OVCAR-8 ovarian) was 40.8 µM and the GI50 (LOX IMVI melanoma) was 2.08 µM. It also gave a TGI (LOX IMVI melanoma) of 5.88 µM, a GI50 (A549 NSCLC) of 3.98 µM and a TGI (A549 NSCLC) of 21.7 µM. The GI50 (CAKI-1 renal) was 3.61 µM, the TGI (CAKI-1 renal) was 14.1 µM and the GI50 (HCT-15 colon) was 2.08 µM. The TGI (HCT-15 colon) was 10.7 µM, the GI50 (HT29 colon) was 3.54 µM and the TGI (HT29 colon) was 14.4 µM. The GI50 (TK-10 renal) was 5.93 µM, the TGI (TK-10 renal) was 18.1 µM and the GI50 (MCF7 breast) was 2.35 µM. The TGI (MCF7 breast) was 11.2 µM, the GI50 (NCI-H460 lung) was 3.41 µM and the TGI (NCI-H460 lung) was 13.7 µM. For the same compound, the GI50 (RPMI-8226 leukemia) was 1.27 µM, the TGI (RPMI-8226 leukemia) was 3.63 µM and the GI50 (HCC-2998 colon) was 2.68 µM. For the same compound, the TGI (HCC-2998 colon) was 7.36 µM, the GI50 (SK-OV-3 ovarian) was 10.2 µM and the TGI (SK-OV-3 ovarian) was 21.8 µM. It also gave a GI50 (SK-MEL-28 melanoma) of 2.16 µM, a TGI (SK-MEL-28 melanoma) of 6.06 µM and a GI50 (T-47D breast) of 2.12 µM. The TGI (T-47D breast) was 11 µM, the GI50 (MDA-MB-231 breast) was 3.68 µM and the TGI (MDA-MB-231 breast) was 13.5 µM. It also gave a GI50 (SF-539 CNS) of 2.63 µM, a TGI (SF-539 CNS) of 7.5 µM and a GI50 (HOP-92 NSCLC) of 2.38 µM. The TGI (HOP-92 NSCLC) was 7.4 µM, the GI50 (OVCAR-3 ovarian) was 2.28 µM and the TGI (OVCAR-3 ovarian) was 5.67 µM. It also gave a GI50 (COLO 205 colon) of 3.05 µM, a TGI (COLO 205 colon) of 11 µM and a GI50 (PC-3 prostate) of 4.63 µM. For the same compound, the TGI (PC-3 prostate) was 21.1 µM, the GI50 (SR leukemia) was 1.04 µM and the TGI (SR leukemia) was 4.84 µM. It also gave a GI50 (RXF 393 renal) of 1.87 µM and a TGI (RXF 393 renal) of 4.3 µM.
